Laboratory results as given in patent US20230181540A1, “COMPOSITIONS AND METHODS FOR ACTIVATING SIGNALING THROUGH THE CB2 CANNABINOID RECEPTOR FOR TREATING AND PREVENTING LYSOSOMAL STORAGE DISEASES AND DISORDERS” (Wylder Nation Foundation, priority 2020, published 2023).
“Also recorded” adds a separate entry of the source.

Legend:
MCP-1 [1] = test: MCP-1 released into culture media by skin fibroblasts from a patient with MPS IIIA (ELISA); assay type: cell-based, human; conditions: 3.2 micromoles/ml, 72 or 96 hr, vs cultures without drug, p < 0.01
Description: Skin fibroblasts from a patient with MPS IIIA were grown to ~70% confluency and the CB2 agonists JHW133 and PM226 were added to the culture media for 72 or 96 hr at a dose of 3.2 micromoles/ml (black and gray bars, respectively). Control: cultures without drug added (white bars). […] Bar heights indicate the mean values from three independent experiments. Vertical lines indicate the standard error of the mean. * = p < 0.01 comparing with and without drug.

[2] = system: mouse model of Sanfilippo disease (mucopolysaccharidosis IIIA); conditions: cited from earlier work
[3] = system: mouse model of Niemann-Pick diseases type C1 (NPC1); conditions: cited from earlier work
CB2 = test: Immunohistochemical analysis of CB2 expression in organs of Farber disease mice; assay type: in vivo, mouse; conditions: 5 mg/kg i.p. 3x a week for 6 weeks, 8.5-week-old, vs untreated Farber mice
Description: Ten 2.5-week-old Farber disease mice were treated once weekly with recombinant acid ceramidase by intraperitoneal injection at a dose of 10 mg/kg. After 6 injections the 8.5-week-old mice were euthanized and their organs collected and processed for immunohistochemical analysis of CB2 expression. […] Thus, CB2 can be used as a biomarker to monitor the efficacy of treatment for Farber disease and other lysosomal storage disorders.
(§1) Ten 2.5-week-old Farber disease mice were treated 3x a week by intraperitoneal injection of JWH133 at a dose of 5 mg/kg. After 6 weeks the 8.5-week-old mice were euthanized and their organs collected and processed for immunohistochemical analysis of CB2 expression. […] Thus, CB2 agonists, such as JWH133, can be used to treat Farber disease and other lysosomal storage disorders.

MCP-1 [4] = test: MCP-1 expression in liver and plasma of Farber disease mice; assay type: in vivo, mouse; conditions: 5 mg/kg i.p. 3x a week for 6 weeks, vs untreated Farber mice
Description: as §1, with “organs and plasma” for “organs”, “of MCP-1” for “of CB2”, “storage disorders (* = p<0.01).” for “storage disorders.”

Farber mice = test: Survival and body weight of Farber mice treated with CB2 agonist
Description: Two Farber mouse groups were studied (n=12 mice per group). […] In the control group they were injected with DMSO alone. Weight was monitored daily.

Compound: CCCCCCC(C)(C)c1cc(OC)c2c(c1)OC(C)(C)c1cnoc1-2 [PM226]
- levels of MCP-1 released into the culture media (MCP-1 [1]): able to reduce the levels of MCP-1 released into the culture media

Compound: pentosan polysulfate [PPS]
- CNS pathology ([2]; mouse model of MPS IIIA, attributed to systemic effects): some improvements in CNS pathology were noted

Compound: CC(C)Cc1ccc(C(C)C(=O)O)cc1 (centres unmarked) [ibuprofen]
- lifespan ([3]; high doses): prolong the lifespan of the mice by about two weeks
- onset of clinical signs ([3]; high doses): modestly slow the onset of clinical signs

Compound: CC(=O)Oc1ccccc1C(=O)O [aspirin]
- expression of inflammation-related genes ([2]; chronic treatment for 6 months with high doses): normalize expression of some inflammation-related genes
- treatment efficacy [3]: failed to show treatment efficacy

Compound: CCCC(C)(C)c1ccc2c(c1)OC(C)(C)[C@@H]1CC=C(C)C[C@@H]21 [JWH133]
- CB2 expression (immunohistochemistry) (CB2): significantly reduced
- MCP-1 expression in the liver (MCP-1 [4]): significantly reduced
- MCP-1 expression in plasma (MCP-1 [4]; p<0.01): significantly reduced
- levels of MCP-1 released into the culture media (MCP-1 [1]): able to reduce the levels of MCP-1 released into the culture media
- day of natural death in the treatment group (Farber mice; Farber mice, 5 mg/kg i.p. three times a week from 2 weeks of age): 47 days
- survival / life span (Farber mice; Farber mice, 5 mg/kg i.p. three times a week in DMSO from 2 weeks of age, vs vehicle control (all dead by day 44)): survived longer than vehicle control treated mice
- body weight (Farber mice; Farber mice, 5 mg/kg i.p. three times a week, throughout the study, vs vehicle alone, 5 mg/kg): significantly greater; also recorded: significant prevention of weight loss
- number of mice that died naturally in the treatment group (Farber mice; of 12 Farber mice, 5 mg/kg i.p. three times a week, remaining 11 euthanized at day 58): 1
